Laboratory results: patent US9745321B2, “Fused pyrimidine compound, intermediate, preparation method therefor, and composition and application thereof” (SHANGHAI YINGLI PHARMACEUTICAL CO., LTD, priority 2013, dated 2017)

Columns and labels:
PI3Kδ = PI3Kδ (Homo sapiens (Human), UniProt O00329); experiment: PI3Kδ enzyme activity inhibition IC50 evaluation assay; format: biochemical; details: luminescence, 25 μM ATP, 50 μM PIP2, 2 hrs room temperature
Procedure: (§1) PI3Kα, PI3Kδ, PI3Kβ and PI3Kγ Enzyme Activity Inhibition IC50 Evaluation Assay
• 1. Buffer preparation: 50 mM HEPES, pH 7.5, 3 mM MgCl2, 1 mM EGTA, 100 mM NaCl, 0.03% CHAPS. • 2. Compound was formulated in 100% DMSO in a concentration gradient, and added to a 384-well plate to a final DMSO concentration of 1%. • 3. PI3Kα, PI3Kδ, PI3Kβ and PI3Kγ enzymes were diluted to an optimum concentration with the following buffer: 50 mM HEPES, pH 7.5, 3 mM MgCl2, 1 mM EGTA, 100 mM NaCl, 0.03% CHAPS, 2 mM DTT, and transferred to a 384-well plate and incubated with the compound for a certain time. • 4. […] For PI3Kβ and PI3Kγ, it was still necessary to further add 10 μL ADP-Glo Detection Reagent, and then equilibrated at room temperature for 30 minutes. • 5. Read Luminescense with FlexStation, and calculate the inhibition rate as the average of two tests.

PI3Kα = PI3Kα (Homo sapiens (Human), UniProt P42336); experiment: PI3Kα enzyme activity inhibition IC50 evaluation assay; format: biochemical; details: ratio PI3Kα vs PI3Kδ
Procedure: as §1
• 1. Buffer preparation: 50 mM HEPES, pH 7.5, 3 mM MgCl2, 1 mM EGTA, 100 mM NaCl, 0.03% CHAPS. • 2. Compound was formulated in 100% DMSO in a concentration gradient, and added to a 384-well plate to a final DMSO concentration of 1%. • 3. PI3Kα, PI3Kδ, PI3Kβ and PI3Kγ enzymes were diluted to an optimum concentration with the following buffer: 50 mM HEPES, pH 7.5, 3 mM MgCl2, 1 mM EGTA, 100 mM NaCl, 0.03% CHAPS, 2 mM DTT, and transferred to a 384-well plate and incubated with the compound for a certain time. • 4. Substrate was diluted to an optimum concentration with the following buffer: 50 mM HEPES, pH 7.5, 3 mM MgCl2, 1 mM EGTA, 100 mM NaCl, 0.03% CHAPS, 2 mM DTT, 50 μM PIP2, 25 μM ATP; then added to a 384-well plate to initiate the reaction, and for PI3Kα, PI3Kβ and PI3Kγ at room temperature reacted for 1 hr, for PI3Kδ at room temperature reacted for 2 hrs. For PI3Kβ and PI3Kγ, it was still necessary to further add 10 μL ADP-Glo Detection Reagent, and then equilibrated at room temperature for 30 minutes. • 5. Read Luminescense with FlexStation, and calculate the inhibition rate as the average of two tests.

PI3Kα, sequence (P42336 whole entry): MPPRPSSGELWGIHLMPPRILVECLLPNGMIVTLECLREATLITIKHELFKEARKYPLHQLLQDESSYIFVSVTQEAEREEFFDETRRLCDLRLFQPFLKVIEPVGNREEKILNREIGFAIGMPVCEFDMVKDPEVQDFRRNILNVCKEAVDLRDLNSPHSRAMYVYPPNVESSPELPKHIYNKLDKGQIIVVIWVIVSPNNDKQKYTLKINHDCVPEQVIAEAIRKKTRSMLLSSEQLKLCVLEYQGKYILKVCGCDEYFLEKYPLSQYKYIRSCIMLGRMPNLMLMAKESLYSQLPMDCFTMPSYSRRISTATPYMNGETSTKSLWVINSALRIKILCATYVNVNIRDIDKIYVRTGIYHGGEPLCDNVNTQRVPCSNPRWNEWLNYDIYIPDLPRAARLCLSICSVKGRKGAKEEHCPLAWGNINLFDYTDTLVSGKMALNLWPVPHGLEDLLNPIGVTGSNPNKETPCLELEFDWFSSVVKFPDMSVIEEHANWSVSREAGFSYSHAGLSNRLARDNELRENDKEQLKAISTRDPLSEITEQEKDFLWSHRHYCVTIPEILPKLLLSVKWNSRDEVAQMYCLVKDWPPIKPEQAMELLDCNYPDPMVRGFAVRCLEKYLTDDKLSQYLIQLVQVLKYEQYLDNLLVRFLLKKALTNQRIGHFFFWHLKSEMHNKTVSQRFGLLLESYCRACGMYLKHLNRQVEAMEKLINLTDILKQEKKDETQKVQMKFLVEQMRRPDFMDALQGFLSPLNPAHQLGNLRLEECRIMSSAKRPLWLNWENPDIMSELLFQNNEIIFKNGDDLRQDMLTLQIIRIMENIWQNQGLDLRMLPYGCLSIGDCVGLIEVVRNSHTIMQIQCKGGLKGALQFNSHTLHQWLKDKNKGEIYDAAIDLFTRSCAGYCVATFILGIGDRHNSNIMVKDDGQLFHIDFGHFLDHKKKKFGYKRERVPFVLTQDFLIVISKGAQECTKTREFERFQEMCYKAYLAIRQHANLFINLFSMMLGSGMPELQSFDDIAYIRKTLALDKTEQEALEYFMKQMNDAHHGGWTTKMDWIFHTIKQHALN
PI3Kα, sequence (P27986 whole entry partner): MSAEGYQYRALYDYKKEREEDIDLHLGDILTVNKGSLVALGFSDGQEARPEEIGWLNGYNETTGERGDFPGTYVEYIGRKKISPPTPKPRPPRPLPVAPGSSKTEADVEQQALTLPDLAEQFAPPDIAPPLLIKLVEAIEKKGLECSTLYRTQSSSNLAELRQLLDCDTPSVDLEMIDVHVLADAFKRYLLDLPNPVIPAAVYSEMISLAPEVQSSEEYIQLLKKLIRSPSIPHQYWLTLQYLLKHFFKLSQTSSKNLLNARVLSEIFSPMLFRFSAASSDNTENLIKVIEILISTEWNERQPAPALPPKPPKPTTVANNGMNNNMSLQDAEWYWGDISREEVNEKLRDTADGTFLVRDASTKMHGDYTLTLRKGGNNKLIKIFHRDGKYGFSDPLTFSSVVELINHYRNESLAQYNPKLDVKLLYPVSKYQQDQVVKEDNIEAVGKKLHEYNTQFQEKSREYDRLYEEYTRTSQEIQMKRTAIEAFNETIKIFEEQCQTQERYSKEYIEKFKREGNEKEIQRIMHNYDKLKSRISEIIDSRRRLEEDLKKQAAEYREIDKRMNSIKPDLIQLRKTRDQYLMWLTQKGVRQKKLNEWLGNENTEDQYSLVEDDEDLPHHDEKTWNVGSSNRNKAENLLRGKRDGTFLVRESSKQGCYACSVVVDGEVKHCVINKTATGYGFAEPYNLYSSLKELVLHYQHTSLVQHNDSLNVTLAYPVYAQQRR
PI3Kδ, sequence (O00329 whole entry): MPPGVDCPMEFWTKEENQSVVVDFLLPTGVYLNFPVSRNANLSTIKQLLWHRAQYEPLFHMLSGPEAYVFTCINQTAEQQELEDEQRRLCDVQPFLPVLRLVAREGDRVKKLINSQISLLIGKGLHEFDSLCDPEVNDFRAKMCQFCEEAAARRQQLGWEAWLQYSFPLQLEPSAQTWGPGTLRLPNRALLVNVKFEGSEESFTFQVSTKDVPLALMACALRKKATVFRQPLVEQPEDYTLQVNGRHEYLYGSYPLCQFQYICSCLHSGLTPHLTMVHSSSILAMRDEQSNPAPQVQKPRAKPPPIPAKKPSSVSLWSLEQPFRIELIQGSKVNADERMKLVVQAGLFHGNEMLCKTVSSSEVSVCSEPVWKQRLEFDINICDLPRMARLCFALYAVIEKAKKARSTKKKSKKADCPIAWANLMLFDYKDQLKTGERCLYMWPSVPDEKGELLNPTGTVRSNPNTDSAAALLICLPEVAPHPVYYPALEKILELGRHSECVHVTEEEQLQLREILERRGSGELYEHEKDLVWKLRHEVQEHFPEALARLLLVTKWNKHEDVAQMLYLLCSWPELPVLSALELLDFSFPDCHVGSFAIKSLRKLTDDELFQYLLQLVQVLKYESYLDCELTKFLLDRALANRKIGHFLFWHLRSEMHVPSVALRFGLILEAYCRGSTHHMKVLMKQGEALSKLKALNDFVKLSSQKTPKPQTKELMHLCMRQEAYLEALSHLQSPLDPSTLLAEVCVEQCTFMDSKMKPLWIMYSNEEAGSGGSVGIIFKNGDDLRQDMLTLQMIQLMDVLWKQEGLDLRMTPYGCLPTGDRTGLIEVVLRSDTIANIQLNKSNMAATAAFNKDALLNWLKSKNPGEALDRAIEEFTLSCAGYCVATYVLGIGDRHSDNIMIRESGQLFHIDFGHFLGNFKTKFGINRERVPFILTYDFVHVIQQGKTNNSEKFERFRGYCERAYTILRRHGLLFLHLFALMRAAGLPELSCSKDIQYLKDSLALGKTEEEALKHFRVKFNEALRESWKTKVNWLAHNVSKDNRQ
PI3Kδ, sequence (P27986 whole entry partner): as the sequence (P27986 whole entry partner) above

## COc1ncc(-c2nc(N3CCOCC3)nc3c(CN4CCN(C(C)(C)C)CC4)csc23)cc1NS(C)(=O)=O [Compound 34]
PI3Kδ
  IC50: 3.4 nM
PI3Kα
  α/δ selectivity: 44

## COc1ncc(-c2nc(N3CCOCC3)nc3c(CN4CCOCC4)csc23)cc1NS(C)(=O)=O [Compound 36]
PI3Kδ
  IC50: 13 nM
PI3Kα
  α/δ selectivity: 23

## Cc1cn(-c2nc(N3CCOCC3)nc3c(CN4CCN(C(=O)C5CC5)CC4)csc23)c(C)n1 [Compound 37]
PI3Kδ
  IC50: 28.9 nM
PI3Kα
  α/δ selectivity: 38

## COc1ncc(-c2nc(N3CCOCC3)nc3ccoc23)cc1NS(C)(=O)=O [Compound 38]
PI3Kδ
  IC50: 108 nM
PI3Kα
  α/δ selectivity: 3

## COc1ncc(-c2nc(N3CCOCC3)nc3c(CN4CCN(C5CCN(C)CC5)CC4)csc23)cc1NS(C)(=O)=O [Compound 39]
PI3Kδ
  IC50: 9.2 nM
PI3Kα
  α/δ selectivity: 159

## COc1ncc(-c2nc(N3CCOCC3)nc3c(CN4CCN(C(=O)C5CCCCC5)CC4)csc23)cc1NS(C)(=O)=O [Compound 40]
PI3Kδ
  IC50: 17 nM
PI3Kα
  α/δ selectivity: 41

## COc1ncc(-c2nc(N3CCOCC3)nc3c(CN4CCC(C(C)(C)O)CC4)csc23)cc1NS(=O)(=O)c1ccccc1 [Compound 41]
PI3Kδ
  IC50: 11.4 nM
PI3Kα
  α/δ selectivity: 323

## COc1ncc(-c2nc(N3CCOCC3)nc3c(CN4CCC(C(=O)NCC(F)(F)F)CC4)csc23)cc1NS(C)(=O)=O [Compound 42]
PI3Kδ
  IC50: 13 nM
PI3Kα
  α/δ selectivity: 152

## COc1ncc(-c2nc(N3CCOCC3)nc3c(CN4CCC(N(C)C)CC4)csc23)cc1NS(C)(=O)=O [Compound 43]
PI3Kδ
  IC50: 4 nM
PI3Kα
  α/δ selectivity: 105

## COc1ncc(-c2nc(N3CCOCC3)nc3c(CN4CCN(C(=O)C(C)(C)C)CC4)csc23)cc1NS(C)(=O)=O [Compound 46]
PI3Kδ
  IC50: 6.1 nM
PI3Kα
  α/δ selectivity: 23

## COc1ncc(-c2nc(N3CCOCC3)nc3c(CN4CCN(C(=O)C(C)C)CC4)csc23)cc1NS(C)(=O)=O [Compound 47]
PI3Kδ
  IC50: 3.5 nM
PI3Kα
  α/δ selectivity: 9

## COc1ncc(-c2nc(N3CCOCC3)nc3c(CN4CC5CC4CN5C4COC4)csc23)cc1NS(C)(=O)=O (centres unmarked) [Compound 48]
PI3Kδ
  IC50: 6.9 nM
PI3Kα
  α/δ selectivity: 52

## COc1ncc(-c2nc(N3CCOCC3)nc3c(CN4CCN(C(=O)N5CCCC5)CC4)csc23)cc1NS(C)(=O)=O [Compound 49]
PI3Kδ
  IC50: 5.7 nM
PI3Kα
  α/δ selectivity: 15

## COc1ncc(-c2nc(N3CCOCC3)nc3c(CN4CCC(C(C)(C)O)CC4)csc23)cc1NS(=O)(=O)C1CC1 [Compound 50]
PI3Kδ
  IC50: 13 nM
PI3Kα
  α/δ selectivity: 359

## COc1ncc(-c2nc(N3CCOCC3)nc3c(CN4CCN(C)CC4)csc23)cc1NS(C)(=O)=O [Compound 51]
PI3Kδ
  IC50: 11 nM
PI3Kα
  α/δ selectivity: 103

## COc1ncc(-c2nc(N3CCOCC3)nc3c(CN4CCC(N(C)C(=O)OC(C)(C)C)CC4)csc23)cc1NS(C)(=O)=O [Compound 52]
PI3Kδ
  IC50: 36 nM
PI3Kα
  α/δ selectivity: 252

## COc1ncc(-c2nc(N3CCOCC3)nc3c(CN4CC(C(C)(C)O)C4)csc23)cc1NS(C)(=O)=O [Compound 53]
PI3Kδ
  IC50: 19 nM
PI3Kα
  α/δ selectivity: 110

## COc1ncc(-c2nc(N3CCOCC3)nc3c(CN4CCC(C(C)(C)OC)CC4)csc23)cc1NS(C)(=O)=O [Compound 54]
PI3Kδ
  IC50: 2.7 nM
PI3Kα
  α/δ selectivity: 108

## COc1ncc(-c2nc(N3CCOCC3)nc3c(CN4CCC(N5C[C@@H](C)O[C@@H](C)C5)CC4)csc23)cc1NS(C)(=O)=O [Compound 55]
PI3Kδ
  IC50: 5.6 nM
PI3Kα
  α/δ selectivity: 224

## CCN(C)C1CCN(Cc2csc3c(-c4cnc(OC)c(NS(C)(=O)=O)c4)nc(N4CCOCC4)nc23)CC1 [Compound 56]
PI3Kδ
  IC50: 7.6 nM
PI3Kα
  α/δ selectivity: 293

## COc1ncc(-c2nc(N3CCOCC3)nc3c(CN4CCN(C(C)(C)C(N)=O)CC4)csc23)cc1NS(C)(=O)=O [Compound 57]
PI3Kδ
  IC50: 2.8 nM
PI3Kα
  α/δ selectivity: 103

## COc1ncc(-c2nc(N3CCOCC3)nc3c(CN4CCC(N(C)C(C)C)CC4)csc23)cc1NS(C)(=O)=O [Compound 58]
PI3Kδ
  IC50: 5.4 nM
PI3Kα
  α/δ selectivity: 150

## COc1ncc(-c2nc(N3CCOCC3)nc3c(CN4CCN(S(C)(=O)=O)CC4)c(C)sc23)cc1NS(C)(=O)=O [Compound 61]
PI3Kδ
  IC50: 4.7 nM
PI3Kα
  α/δ selectivity: 12

## COc1ncc(-c2nc(N3CCOCC3)nc3c(CN4CCN(C(=O)C(F)(F)F)CC4)csc23)cc1NS(C)(=O)=O [Compound 62]
PI3Kδ
  IC50: 5.6 nM
PI3Kα
  α/δ selectivity: 104

## COc1ncc(-c2nc(N3CCOCC3)nc3c(CN4CCN(C(=O)NCC(F)(F)F)CC4)csc23)cc1NS(C)(=O)=O [Compound 63]
PI3Kδ
  IC50: 12 nM
PI3Kα
  α/δ selectivity: 27

## COc1ncc(-c2nc(N3CCOCC3)nc3c(CN4CCN(CC(F)(F)F)CC4)csc23)cc1NS(C)(=O)=O [Compound 64]
PI3Kδ
  IC50: 9.1 nM
PI3Kα
  α/δ selectivity: 110

## COc1ncc(-c2nc(N3CCOCC3)nc3c(CN4CCN(C(C)(C)C)CC4)csc23)cc1NS(=O)(=O)C1CC1 [Compound 67]
PI3Kδ
  IC50: 3.6 nM
PI3Kα
  α/δ selectivity: 195

## COc1ncc(-c2nc(N3CCOCC3)nc3c(CN4CCN(C)CC4)csc23)cc1NS(=O)(=O)c1ccc(F)cc1F [Compound 68]
PI3Kδ
  IC50: 71 nM
PI3Kα
  α/δ selectivity: 19

## COc1ncc(-c2nc(N3CCOCC3)nc3c(CN4CCN(C)CC4)csc23)cc1NS(=O)(=O)C1CC1 [Compound 69]
PI3Kδ
  IC50: 31 nM
PI3Kα
  α/δ selectivity: 79

## CCS(=O)(=O)Nc1cc(-c2nc(N3CCOCC3)nc3c(CN4CCN(C)CC4)csc23)cnc1OC [Compound 70]
PI3Kδ
  IC50: 23 nM
PI3Kα
  α/δ selectivity: 87

## COc1ncc(-c2nc(N3CCOCC3)nc3c(CN4CCN(C)CC4)csc23)cc1NS(=O)(=O)N(C)C [Compound 72]
PI3Kδ
  IC50: 60 nM
PI3Kα
  α/δ selectivity: 29

## COc1ncc(-c2nc(N3CCOCC3)nc3c(CN4CCN(C(=O)[C@@H](C)O)CC4)c(C)sc23)cc1NS(C)(=O)=O [Compound 73]
PI3Kδ
  IC50: 4.4 nM
PI3Kα
  α/δ selectivity: 18

## COc1ncc(-c2nc(N3CCOCC3)nc3c(CN4CCN(C(=O)[C@H](C)O)CC4)c(C)sc23)cc1NS(C)(=O)=O [Compound 74]
PI3Kδ
  IC50: 4.4 nM
PI3Kα
  α/δ selectivity: 13

## CN1CCN(Cc2csc3c(-c4cncc(NS(C)(=O)=O)c4)nc(N4CCOCC4)nc23)CC1 [Compound 75]
PI3Kδ
  IC50: 31 nM
PI3Kα
  α/δ selectivity: 19

## CCNC(=O)C1CCN(Cc2csc3c(-c4cnc(OC)c(NS(C)(=O)=O)c4)nc(N4CCOCC4)nc23)CC1 [Compound 76]
PI3Kδ
  IC50: 7.3 nM
PI3Kα
  α/δ selectivity: 60

## COc1ncc(-c2nc(N3CCOCC3)nc3c(CN4CCN(C5CC(C)OC(C)C5)CC4)csc23)cc1NS(C)(=O)=O (centres unmarked) [Compound 77]
PI3Kδ
  IC50: 7.1 nM
PI3Kα
  α/δ selectivity: 52

## COc1ncc(-c2nc(N3CCOCC3)nc3c(CN4CCC(C(C)(C)F)CC4)c(C)sc23)cc1NS(=O)(=O)C1CC1 [Compound 80]
PI3Kδ
  IC50: 39 nM
PI3Kα
  α/δ selectivity: >256

## CNC1CCN(Cc2c(C)sc3c(-c4cnc(OC)c(NS(C)(=O)=O)c4)nc(N4CCOCC4)nc23)CC1 [Compound 92]
PI3Kδ
  IC50: 71 nM
PI3Kα
  α/δ selectivity: 42

## COc1ncc(-c2nc(N3CCOCC3)nc3c(CN4CCC(N(C)C)CC4)c(C)sc23)cc1NS(C)(=O)=O [Compound 93]
PI3Kδ
  IC50: 10 nM
PI3Kα
  α/δ selectivity: 82

## COc1ncc(-c2nc(N3CCOCC3)nc3c(CN(C)C)c(C)sc23)cc1NS(C)(=O)=O [Compound 94]
PI3Kδ
  IC50: 32 nM
PI3Kα
  α/δ selectivity: 31
